Results reported in article PMC12373729 (Scientific Reports, 2025).
“Also recorded” adds a separate entry of the source. Counter-ions that a name gives are not always drawn. Like-named read-outs stand apart in the source and are kept apart here.

Columns and labels:
SARS-CoV-2 [1] = test: microbe, parasite or virus in culture; format: cell-based
in vitro = conditions: African green monkey
Vero E6 cells [2] = tested on: Vero E6 cells
Vero E6 cells [3] = test: Cell viability / 50% cytotoxic concentration, EZ-Cytox kit; conditions: Vero E6 cells, 1 nM–100 µM, 2 days of treatment; Table S2
[4] = as above; conditions: African green monkey, CC50, Vero E6 cells
[5] = all patients, clinical settings; cited from earlier work
CHIKV nsP2 protease = tested on: CHIKV nsP2 protease; design: method as in Cardoso et al. 43, 44; conditions: ref Cardoso et al. 43, 44; cited from earlier work
SARS-CoV-2 [6] = conditions: cited from earlier work
[7] = tested on: SARS-CoV-2 papain-like protease; conditions: cited from earlier work
ZIKV protease = tested on: ZIKV protease; design: method as in Cardoso et al. 43, 44; conditions: competitive inhibition; ref Cardoso et al. 43, 44; cited from earlier work
YFV protease = conditions: competitive inhibition; ref Cardoso et al. 43, 44; cited from earlier work
[8] = Severe acute respiratory syndrome coronavirus 2, Vero C1008, Vero E6 cells, MOI 0.01, compound together with virus for 2 h, titers at 48 h, Table S2, '-' = no significant antiviral effect, read-out: IC50
[9] = Vero E6 cells, MOI 0.01, compound together with virus for 2 h, titers at 48 h, Table S2, '-' = no significant antiviral effect, read-out: IC50
[10] = 1 nM–100 µM, 2 days of treatment, Table S2
[11] = Severe acute respiratory syndrome coronavirus 2, Vero C1008, Vero E6 cells, MOI 0.01, treatment during inoculation 2 h, then drug-free 48 h, Fig. 1, read-out: IC50
[12] = Severe acute respiratory syndrome coronavirus 2, Vero C1008, compound added 2 h before inoculation, washed, then infected 2 h, titers 48 h post-infection, '-' = no measurable antiviral effect, read-out: IC50 Pre-infection
[13] = Severe acute respiratory syndrome coronavirus 2, Vero C1008, infected 2 h, washed, then medium containing compound, titers 48 h post-infection, '-' = no measurable antiviral effect, read-out: IC50 Post-infection
[14] = Vero E6 cells, MOI 0.01, treatment during inoculation 2 h, then drug-free 48 h, Fig. 1, read-out: IC50

N[C@@H](Cc1c[nH]c2ccc(O)cc12)C(=O)O [5-Hydroxy-L-tryptophan (4PQ), 5-hydroxy-L-tryptophan]
IC50 (SARS-CoV-2 [1]; [8]): > 100 µM
CC50 at 2 days (in vitro): > 100 µM

COc1cc2nc(N3CCNCC3)nc(N)c2cc1OC [6,7-dimethoxy-2-(1-piperazinyl)-4-quinazolinamine]
IC50 (SARS-CoV-2 [1]; [8]): > 100 µM
CC50 at 2 days (in vitro): > 100 µM

Nc1ncnc2nc[nH]c12 [Adenine (ADE), adenine]
IC50 (SARS-CoV-2 [1]; [8]): > 100 µM
CC50 (in vitro): > 100 µM

C/C1=C2/N[C@H]([C@H](CC(N)=O)[C@@]2(C)CCC(=O)NC[C@@H](C)OP(=O)(O)O[C@H]2[C@@H](O)[C@@H](n3cnc4cc(C)c(C)cc43)O[C@@H]2CO)[C@]2(C)N=C(/C(C)=C3N=C(/C=C4N=C1[C@@H](CCC(N)=O)C\4(C)C)[C@@H](CCC(N)=O)[C@]\3(C)CC(N)=O)[C@@H](CCC(N)=O)[C@]2(C)CC(N)=O.C[C@H]1O[C@@H](n2cnc3c(N)ncnc32)[C@H](O)[C@@H]1O.[Co] [Coenzyme B12 (B1Z), coenzyme B12]
CC50 (Vero E6 cells [2]): > 100 µM
IC50 (SARS-CoV-2 [1]; [9]): > 100 µM

C/C1=C2/[N-][C@H]([C@H](CC(N)=O)[C@@]2(C)CCC(=O)NC[C@@H](C)OP(=O)([O-])O[C@H]2[C@@H](O)[C@@H](n3cnc4cc(C)c(C)cc43)O[C@@H]2CO)[C@]2(C)N=C(/C(C)=C3N=C(/C=C4N=C1[C@@H](CCC(N)=O)C\4(C)C)[C@@H](CCC(N)=O)[C@]\3(C)CC(N)=O)[C@@H](CCC(N)=O)[C@]2(C)CC(N)=O.[Co+3].[OH-] [Hydroxocobalamin (HPA), hydroxocobalamin]
CC50 (Vero E6 cells [3]): > 100 µM
IC50 (SARS-CoV-2 [1]; [9]): > 100 µM

O=c1[nH]cnc2nc[nH]c12 [Hypoxanthine (HPA), hypoxanthine]
CC50 at 2 days [4, 10]: > 100 µM
IC50 (SARS-CoV-2 [1]; [8]): > 100 µM

NC[C@@H]1O[C@H](O[C@H]2[C@@H](O)[C@H](O[C@@H]3[C@@H](O)[C@H](N)C[C@H](N)[C@H]3O[C@H]3O[C@H](CN)[C@@H](O)[C@H](O)[C@H]3N)O[C@@H]2CO)[C@H](N)[C@@H](O)[C@@H]1O [Neomycin solution (NMY), neomycin solution]
CC50 (Vero E6 cells [3]): > 100 µM
IC50 (SARS-CoV-2 [1]; [9]): > 100 µM

CCC(CC)COC(=O)[C@H](C)N[P@](=O)(OC[C@H]1O[C@@](C#N)(c2ccc3c(N)ncnn23)[C@H](O)[C@@H]1O)Oc1ccccc1 [Remdesivir]
CC50 at 2 days ([4]; 0–100 μM, Table S3): 98.9 µM
CC50 at 2 days [4, 10]: > 100 µM
patients with elevated liver enzymes [5]: 35%
IC50 (SARS-CoV-2 [1]; [11]): 25.8 µM
IC50 (SARS-CoV-2 [1]; [12]): < 6.11 µM
IC50 (SARS-CoV-2 [1]; [13]): 3.47 µM
IC50 (SARS-CoV-2 [1]; [14]): 25.8 µM

Nc1ncnc2c1ncn2[C@@H]1O[C@H](CSCC[C@H](N)C(=O)O)[C@@H](O)[C@H]1O [S-Adenosyl-L-homocysteine (SAH), S-adenosyl-l-homocysteine]
CC50 (Vero E6 cells [3]): > 100 µM
IC50 (SARS-CoV-2 [1]; [9]): > 100 µM

Nc1ncnc2c1ncn2[C@@H]1O[C@@H]2COP(=O)(O)O[C@H]3[C@@H](O)[C@H](n4cnc5c(N)ncnc54)O[C@@H]3COP(=O)(O)O[C@H]2[C@H]1O [c-di-AMP sodium salt (2BA), c-di-AMP sodium salt]
CC50 (Vero E6 cells [2]): > 100 µM
IC50 (SARS-CoV-2 [1]; [9]): > 100 µM

Nc1nc2c(ncn2[C@@H]2O[C@@H]3COP(=O)(O)O[C@H]4[C@@H](O)[C@H](n5cnc6c(N)ncnc65)O[C@@H]4COP(=O)(O)O[C@H]3[C@H]2O)c(=O)[nH]1 [cGAMP sodium salt]
CC50 (Vero E6 cells [3]): > 100 µM
IC50 (SARS-CoV-2 [1]; [9]): > 100 µM

Cc1cc2nc3c(=O)[nH]c(=O)nc-3n(C[C@H](O)[C@H](O)[C@H](O)COP(=O)(O)O)c2cc1C [riboflavin 5′-monophosphate sodium salt hydrate]
CC50 (Vero E6 cells [2]; African green monkey, 2 days): > 100 µM
IC50 (SARS-CoV-2 [1]; [8]): 59.4 µM
IC50 (SARS-CoV-2 [1]; [12]): > 100 µM
IC50 (SARS-CoV-2 [1]; Severe acute respiratory syndrome coronavirus 2, Vero C1008, compound and virus simultaneously for 2 h, washed, titers 48 h post-infection, read-out: IC50 During infection): 59.4 µM
IC50 (SARS-CoV-2 [1]; [13]): > 100 µM
CC50 at 2 days (in vitro): 98.9 µM

Cc1cc2nc3c(=O)[nH]c(=O)nc-3n(C[C@H](O)[C@H](O)[C@H](O)CO)c2cc1C [riboflavin]
activity against CHIKV nsP2 protease (CHIKV nsP2 protease): potent activity
effect on viral replication in cellular models (SARS-CoV-2 [6]): fails to block viral replication
concentration inhibiting SARS-CoV-2 papain-like protease in vitro [7]: > 50 µM
concentration inhibiting viral papain-like protease (PLpro) ([7]; high concentrations, ref 2 (supplement)): > 50 µM
CC50 at 2 days ([4]; text and Fig. 1 (Fig. 1: 2 h treatment, then drug-free media 48 h)): > 100 µM
IC50, ZIKV protease (ZIKV protease): medium micromolar range
IC50, YFV protease (YFV protease): medium micromolar range
IC50 (SARS-CoV-2 [1]; [11]): 59.4 µM
antiviral effect, treatment post-infection (SARS-CoV-2 [1]; Vero E6 cells, 2 h post-infection, in words): no measurable antiviral effects; also recorded: no effect
antiviral effect, treatment prior to infection (SARS-CoV-2 [1]; Vero E6 cells, 2 h prior to infection, in words): no measurable antiviral effects; also recorded: no effect
IC50 (SARS-CoV-2 [1]; [14]): 59.4 µM
antiviral effect, treatment during viral inoculation (SARS-CoV-2 [1]; Vero E6 cells, in words): significant inhibition; also recorded: significantly reduced viral replication
effect on viral replication when added to the culture medium after viral inoculation (SARS-CoV-2 [1]; drug-containing media for 48 h, Supplementary Fig. S1, in words): additional inhibitory effects on viral replication were observed
